# US8937067B2, “Activators of human pyruvate kinase” (The United States of America, as represented by the …, priority 2008, dated 2015)
# Several values for one entry are separate records, joined by “and”; a condition that tells them apart may be missing. Equal entries are not always repeated.
# What was measured:
# hPK-M2 [1] = biological target: T1, hPK-M2 (Homo sapiens, UniProt P14618); assay: Luminescent pyruvate kinase-luciferase coupled assay (KinaseGlo); assay type: biochemical; conditions: for hPK, M2 Max. Res. / activation at 57 µM: KinaseGlo, % activation at 57 μM of compound; for activation at 57 µM: read-out: hPK, M2 Max. Res.; for Emax: read-out: maximum response
# T1 sequence (P14618 whole entry): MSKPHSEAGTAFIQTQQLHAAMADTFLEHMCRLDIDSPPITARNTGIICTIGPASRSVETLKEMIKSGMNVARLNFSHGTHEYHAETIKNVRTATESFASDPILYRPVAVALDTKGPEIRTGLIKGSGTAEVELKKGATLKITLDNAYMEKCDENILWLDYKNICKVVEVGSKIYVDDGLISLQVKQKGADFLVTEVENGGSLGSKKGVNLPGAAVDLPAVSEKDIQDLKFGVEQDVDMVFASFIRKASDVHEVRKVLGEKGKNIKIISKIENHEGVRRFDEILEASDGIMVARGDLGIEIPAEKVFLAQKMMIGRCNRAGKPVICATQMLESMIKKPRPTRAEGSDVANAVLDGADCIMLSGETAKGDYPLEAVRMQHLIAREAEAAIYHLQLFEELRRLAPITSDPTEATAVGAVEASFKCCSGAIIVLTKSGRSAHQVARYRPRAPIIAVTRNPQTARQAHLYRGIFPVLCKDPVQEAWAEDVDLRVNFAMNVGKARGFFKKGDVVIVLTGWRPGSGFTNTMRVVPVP
# Outline: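 Activation assay with 0.1 mM ADP and 0.5 mM PEP in 50 mM imidazole pH 7.2, 50 mM KCl, 7 mM MgCl2, 0.01% tween 20, 0.05% BSA; 1 h at r.t. ATP produced was read by luciferase luminescence. AC50 values were normalized to DMSO (uninhibited enzyme) and no-enzyme controls.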
# hPK-M2 [2] = biological target: T1, hPK-M2; assay: Fluorescent pyruvate kinase-lactate dehydrogenase (LDH) coupled secondary assay; assay type: biochemical; conditions: for LDH hPK, M2 Max. Res.: % activation at 57 μM of compound; for Emax: read-out: maximum response, LDH assay
# Experimental: Fluorescent Pyruvate Kinase-Lactate Dehydrogenase Coupled Secondary Assay.
# Plates were immediately placed in ViewLux (Perkin Elmer) and NADH fluorescence was determined at 30 second exposure intervals for between 3 and 6 minutes. Data were normalized to the uninhibited and EC100 activation using known activators such as fructose-1,6-bis-phosphate. […] Data was collected on the Perkin Elmer Viewlux.
# [3] = luminescent pyruvate kinase-luciferase coupled assay (KinaseGlo), tables, read-out: hPK, M2 AC50
# [4] = tables, read-out: LDH hPK, M2 AC50
# [5] = luciferase-coupled assay, relative to activation by FBP
# [6] = luciferase-coupled assay, read-out: AC50
SMILES,"hPK, M2 Max. Res. (hPK-M2 [1]) [%]",AC50 (hPK-M2 [1]; [3]) [nM],"LDH hPK, M2 Max. Res. (hPK-M2 [2]) [%]",AC50 (hPK-M2 [2]; [4]) [nM],activation at 57 µM (hPK-M2 [1]) [%],Emax (hPK-M2 [1]; [5]) [%],Emax (hPK-M2 [2]) [%],"AC50 (hPK-M2 [2]; read-out: AC50, LDH assay) [nM]",AC50 (hPK-M2 [1]; [6]) [nM],maximum response (hPK-M2 [1]; [5])
COc1cc(F)c(S(=O)(=O)N2CCN(S(=O)(=O)c3cccs3)CC2)c(F)c1 [Compound 144],95.08,36.6,125.28,51.7,–,–,–,–,–,–
"O=S(=O)(c1cccc(F)c1)N1CCN(S(=O)(=O)c2ccc3c(c2)OCCO3)CC1 [Compound 7, 1-(2,3-dihydrobenzo[b][1,4]dioxin-6-ylsulfonyl)-4-(3-fluorophenylsulfonyl)piperazine]",–,316,–,–,107 ± 8.8,96.3,259,–,–,–
"O=C1CN(S(=O)(=O)c2ccc3c(c2)OCCO3)CCN1S(=O)(=O)c1c(F)cccc1F [Compound 50, 1-(2,6-difluorophenylsulfonyl)-4-(2,3-dihydrobenzo[b][1,4]dioxin-6-ylsulfonyl)piperazin-2-one]",–,2420 ± 160,–,–,96.9 ± 5.6,–,82,3160,–,–
"Cc1cc2c(s1)c1c(C)nn(Cc3ccccc3F)c(=O)c1n2C [Compound 92, 2,4,8-Methyl-6-[(2-fluorophenyl)methyl]-4H-thieno[3,2-b]pyrrole[3,241]-pyridazinone]",–,–,–,–,–,< 80,< 80,–,–,–
COc1cc(F)c(S(=O)(=O)N2CCN(S(=O)(=O)c3cccc(NC(C)=O)c3)CC2)c(F)c1 [Compound 133],60.00,1630,94.88,1030,–,–,–,–,–,–
"COc1ccc(Cn2ncc3c4sc(C)cc4n(C)c3c2=O)cc1 [Compound 111, 2,4-Methyl-6-[(4-methoxyphenyl)methyl]-4H-thieno[3,2-b]pyrrole[3,2-d]pyridazinone]",–,37 ± 10,–,–,96.2 ± 2.5,–,258,230 ± 40,–,–
"O=S(=O)(N[C@H]1CC[C@H](NS(=O)(=O)c2c(F)cccc2F)CC1)c1ccc2c(c1)OCCO2 [Compound 37, N-((trans)-4-(2,6-difluorophenylsulfonamido)cyclohexyl)-2,3-dihydrobenzo[b][1,4]dioxine-6-sulfonamide]",–,–,–,–,90.8 ± 12.4,–,56 ± 11,7000 ± 1500,2110 ± 640,–
Nc1ccc(S(=O)(=O)N2CCN(S(=O)(=O)c3c(F)cccc3F)CC2)cc1 [Compound 123],–,651,170.98,410,82.6,–,–,–,–,–
"Cn1c2cc([S+](C)[O-])sc2c2cnn(Cc3ccccc3F)c(=O)c21 (stereo not drawn) [Compound 73, 2-Methylsulfinyl-4-methyl-6-[(2-fluorophenyl)methyl]-4H-thieno[3,2-b]pyrrole[3,2-d]pyridazinone]",–,25 ± 10,–,–,97.9 ± 3.1,–,211,190 ± 10,–,–
"COc1ccc(S(=O)(=O)N2CCN(S(=O)(=O)c3ccc4c(c3)OCCO4)CC2)cc1 [Compound 1, 1-(2,3-dihydrobenzo[b][1,4]dioxin-6-ylsulfonyl)-4-(4-methoxyphenylsulfonyl)piperazine]",–,111,–,–,92.2 ± 12,–,224,300 ± 100,63 ± 20,122.1% and 92.2%
Nc1ccc(S(=O)(=O)N2CCCN(S(=O)(=O)c3ccc4c(c3)OCCO4)CC2)cc1 [Compound 125],–,103,131.59,163,86.6,–,–,–,–,–
CC(=O)Nc1cccc(S(=O)(=O)N2CCCN(S(=O)(=O)c3ccc4c(c3)OCCO4)CC2)c1 [Compound 131],91.11,819,123.67,819,–,–,–,–,–,–
"Cn1c2cc(C=O)sc2c2cnn(Cc3ccccc3F)c(=O)c21 [Compound 84, 2-Formyl-4-methyl-6-[(2-fluorophenyl)methyl]-4H-thieno[3,2-b]pyrrole[3,2-d]pyridazinone]",–,16 ± 10,–,–,99.8 ± 6.5,–,239,100 ± 10,–,–
COc1cc(F)c(S(=O)(=O)N2CCCN(S(=O)(=O)c3cccc(N)c3)CC2)c(F)c1 [Compound 141],93.20,206,157.96,146,–,–,–,–,–,–
"Cc1cc2c(s1)c1cnn(Cc3ccc(C(F)(F)F)cc3)c(=O)c1n2C [Compound 110, 2,4-Methyl-6-[(4-trifluoromethylphenyl)methyl]-4H-thieno[3,2-b]pyrrole[3,2-d]pyridazinone]",–,553 ± 130,–,–,56.1 ± 5.4,–,77,2200,–,–
